Read-outs that look alike come from different tables or passages of the source.
How the values were obtained:
[1] = molecular target: T1, Serotonin (5-Hydroxytryptamine) 5-HT7 (Homo sapiens, UniProt P34969); assay: Serotonin 5-HT7 radioligand binding ([3H]LSD); design: Inhibition of ligand binding, Ser. 5-HT7: concentration or dose not given beside the values; details: percent inhibition of specific binding
T1 construct: expressed in transfected cells; host or cells: CHO cells
Procedure: Lysergic acid diethylamide (LSD) for 2 hours at 25° C. […] Receptor proteins were filtered and washed, the filters were then counted to determine [^3H]LSD specifically bound. […] Biochemical assay results are presented as the percent inhibition of specific binding in Table 6.

[2] = molecular target: T2, human recombinant adrenergic α2A receptor (Homo sapiens, UniProt P08913); assay: Adrenergic α2A radioligand binding ([3H]MK-912); design: Inhibition of ligand binding, Adren. alpha2A: concentration or dose not given beside the values; details: percent inhibition of specific binding
T2 construct: expressed in transfected cells; host or cells: insect Sf9 cells
T2 sequence (P08913 1-465): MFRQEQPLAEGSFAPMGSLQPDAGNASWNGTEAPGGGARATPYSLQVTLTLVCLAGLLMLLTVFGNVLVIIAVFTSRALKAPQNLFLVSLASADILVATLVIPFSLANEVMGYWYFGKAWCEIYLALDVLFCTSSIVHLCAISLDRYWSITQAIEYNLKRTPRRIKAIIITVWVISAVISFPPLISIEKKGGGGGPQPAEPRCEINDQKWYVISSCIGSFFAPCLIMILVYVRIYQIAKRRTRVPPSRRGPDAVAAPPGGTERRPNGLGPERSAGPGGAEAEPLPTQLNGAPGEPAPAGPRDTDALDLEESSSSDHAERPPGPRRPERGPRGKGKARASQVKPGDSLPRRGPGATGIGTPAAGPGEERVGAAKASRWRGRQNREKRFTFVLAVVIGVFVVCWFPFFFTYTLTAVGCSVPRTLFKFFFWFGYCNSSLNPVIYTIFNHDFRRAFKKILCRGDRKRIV
In short: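 Membranes from Sf9 cells expressing the receptor were incubated with 1 nM [3H]MK-912 for 60 minutes at 25° C in 50 mM Tris-HCl pH 7.4, 12.5 mM MgCl2, 2 mM EDTA. 10 μM WB-4101 defined non-specific binding. Values are percent inhibition of specific bound radioactivity after filtration.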

[3] = molecular target: T3, human recombinant serotonin (5-Hydroxytryptamine) 5-HT2C receptor (Homo sapiens, UniProt P28335); assay: Serotonin 5-HT2C radioligand binding ([3H]Mesulergine); design: Inhibition of ligand binding, Ser. 5-HT2C: concentration or dose not given beside the values; details: percent inhibition of specific binding
T3 construct: expressed in transfected cells; host or cells: CHO-K1 cells
T3 sequence (P28335 33-458): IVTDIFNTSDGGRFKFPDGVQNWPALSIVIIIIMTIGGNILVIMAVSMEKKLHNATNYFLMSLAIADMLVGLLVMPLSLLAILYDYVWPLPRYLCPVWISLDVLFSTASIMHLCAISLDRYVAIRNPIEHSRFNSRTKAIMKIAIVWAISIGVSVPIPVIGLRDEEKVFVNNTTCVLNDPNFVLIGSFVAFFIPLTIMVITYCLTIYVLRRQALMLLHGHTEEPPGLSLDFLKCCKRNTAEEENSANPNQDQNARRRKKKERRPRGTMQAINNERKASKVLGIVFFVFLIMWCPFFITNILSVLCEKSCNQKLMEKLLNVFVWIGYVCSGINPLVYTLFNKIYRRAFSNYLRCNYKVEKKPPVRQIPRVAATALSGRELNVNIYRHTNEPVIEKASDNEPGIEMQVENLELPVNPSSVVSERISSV
Procedure: Compounds of the invention were incubated with 1 nM [^3H]Mesulergine for 60 minutes at 25° C. Non-specific binding was estimated in the presence of 1 μM Mianserin. Receptor proteins were filtered and washed, the filters were then counted to determine [^3H]Mesulergine specifically bound. […] Biochemical assay results are presented as the percent inhibition of specific binding in Table 6.

[4] = molecular target: T4, human recombinant histamine H2 receptor (Homo sapiens, UniProt P25021); assay: Histamine H2 radioligand binding ([125I]Aminopotentidine)
T4 construct: expressed in transfected cells; host or cells: CHO-K1 cells
In short: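 This radioligand binding assay measured displacement of [125I]Aminopotentidine from recombinant human histamine H2 receptors. Compounds were dissolved in 1% DMSO vehicle. Specific binding was calculated by subtracting non-specific binding, defined using 3 μM Tiotidine, and activity was reported as percentage inhibition of that specific binding.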

[5] = percent inhibition of specific binding, screened at 1 μM, read-out: Inhibition of ligand binding, Hist. H2

T1 sequence (P34969 whole entry): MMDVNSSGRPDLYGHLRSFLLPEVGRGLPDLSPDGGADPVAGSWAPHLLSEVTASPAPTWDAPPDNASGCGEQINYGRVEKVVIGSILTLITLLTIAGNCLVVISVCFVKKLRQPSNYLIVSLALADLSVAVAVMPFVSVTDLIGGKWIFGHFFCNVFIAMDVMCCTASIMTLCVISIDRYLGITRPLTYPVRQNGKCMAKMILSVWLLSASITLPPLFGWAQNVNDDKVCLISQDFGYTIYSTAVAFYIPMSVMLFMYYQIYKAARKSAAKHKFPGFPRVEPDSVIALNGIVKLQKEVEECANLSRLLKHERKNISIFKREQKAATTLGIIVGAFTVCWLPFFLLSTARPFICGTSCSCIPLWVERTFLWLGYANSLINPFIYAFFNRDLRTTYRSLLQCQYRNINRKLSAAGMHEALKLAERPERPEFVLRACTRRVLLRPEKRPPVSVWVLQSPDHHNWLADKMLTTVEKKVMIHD
T4 sequence (P25021 whole entry): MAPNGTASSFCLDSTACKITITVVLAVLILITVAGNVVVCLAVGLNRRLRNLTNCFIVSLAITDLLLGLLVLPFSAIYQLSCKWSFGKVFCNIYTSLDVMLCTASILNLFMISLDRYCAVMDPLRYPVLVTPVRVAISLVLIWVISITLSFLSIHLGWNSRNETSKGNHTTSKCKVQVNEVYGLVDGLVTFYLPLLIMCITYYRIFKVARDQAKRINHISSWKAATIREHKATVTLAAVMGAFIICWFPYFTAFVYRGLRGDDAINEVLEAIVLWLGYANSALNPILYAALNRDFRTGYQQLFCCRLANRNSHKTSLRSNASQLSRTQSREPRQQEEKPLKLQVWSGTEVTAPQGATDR

Row | SMILES | Inhibition of ligand binding, Ser. 5-HT7 [1] | Inhibition of ligand binding, Adren. alpha2A [2] | Inhibition of ligand binding, Ser. 5-HT2C [3] | inhibition at 0.1 µM ([4]; 0.1 μM compound, 0.1 nM [125I]Aminopotentidine, read-out: Histamine Binding H2, percent inhibition of specific binding) | inhibition at 0.3 µM ([4]; 0.3 μM compound, 0.1 nM [125I]Aminopotentidine, read-out: Histamine Binding H2, percent inhibition of specific binding) | inhibition at 1 µM ([4]; 1 μM compound, 0.1 nM [125I]Aminopotentidine, read-out: Histamine Binding H2, percent inhibition of specific binding) | inhibition at 1 µM [4, 5]
1 | CN1CCc2c(c3ccccc3n2CCc2ccccc2)C1 [Compound 2, 2,3,4,5-tetrahydro-2-methyl-5-phenethyl-1H-pyrido[4,3-b]indole] | 100% | 94% | 97% | 34% | 56% | 81% | 81%
2 | Cc1ccc2c(c1)c1c(n2CCc2ccc(C)nc2)CCN(C2CC2)C1 [Compound 51] | 17% | 26% | 2% |  |  |  | 17%
3 | Cc1ccc(CCn2c3c(c4cc(C(F)(F)F)ccc42)CN(C)CC3)cn1 [Compound 53] | 49% | 18% | 12% |  |  |  | 4%
4 | CN1CCc2c(c3cc(C(F)(F)F)ccc3n2CCc2ccccc2)C1 [Compound 80, 8-(trifluoromethyl)-2,3,4,5-tetrahydro-2-methyl-5-phenethyl-1H-pyrido[4,3-b]indole] | 92% | 98% | 90% |  |  |  | 71%
5 | CN1CCc2c(c3c(Cl)cccc3n2CCc2ccccc2)C1 [Compound 81] | 89% | 96% | 98% |  |  |  | 57%
6 | CN1CCc2c(c3ccc(Cl)cc3n2CCc2ccccc2)C1 [Compound 82] | 100% | 99% | 95% |  |  |  | 99%
7 | CN1CCc2c(c3cc(Cl)ccc3n2CCC2CCCCC2)C1 [Compound 164, 8-chloro-5-(2-cyclohexylethyl)-2,3,4,5-tetrahydro-2-methyl-1H-pyrido[4,3-b]indole] | 92% | 95% | 95% |  |  |  | 84%
8 | CN1CCc2c(c3cc(Cl)ccc3n2CCN2CCOCC2)C1 [Compound 186, 8-chloro-2,3,4,5-tetrahydro-2-methyl-5-(2-morpholinoethyl)-1H-pyrido[4,3-b]indole] | 57% | 51% | 89% |  |  |  | 25%
9 | CN1CCc2c(c3c(Cl)cccc3n2CCC2CCCCC2)C1 [Compound 187, 9-chloro-5-(2-cyclohexylethyl)-2,3,4,5-tetrahydro-2-methyl-1H-pyrido[4,3-b]indole] | 77% | 90% | 77% |  |  |  | 69%
10 | Cc1ccc(CCn2c3c(c4cc(C(C)C)ccc42)CN(C)CC3)cn1 [Compound 392, 8-Isopropyl-2-methyl-5-[2-(6-methyl-pyridin-3-yl)-ethyl]-2,3,4,5-tetrahydro-1H-pyrido[4,3-b]indole] |  | 89% | 82% |  |  |  | 58%
11 | Cc1ccc2c(c1)c1c(n2CC(=O)N2Cc3ccccc3C2)CCN(C)C1 [Compound 397, 2-(1,2,3,4-tetrahydro-2,8-dimethylpyrido[4,3-b]indol-5-yl)-1-(isoindolin-2-yl)ethanone] |  | 16% | 44% |  |  |  | 32%
12 | Cc1ccc2c(c1)c1c(n2CC(=O)N2CCc3ccccc3C2)CCN(C)C1 [Compound 398, 2-(1,2,3,4-tetrahydro-2,8-dimethylpyrido[4,3-b]indol-5-yl)-1-(3,4-dihydroisoquinolin-2(1H)-yl)ethanone] |  | 23% | 69% |  |  |  | 24%
13 | Cc1ccc2c(c1)c1c(n2CC(=O)N2CCSCC2)CCN(C)C1 [Compound 399, 2-(1,2,3,4-tetrahydro-2,8-dimethylpyrido[4,3-b]indol-5-yl)-1-thiomorpholinoethanone] |  | 16% | 73% |  |  |  | 10%
14 | Cc1ccc2c(c1)c1c(n2CC(=O)N2CCCC(C)C2)CCN(C)C1 (stereo not drawn) [Compound 401, 2-(1,2,3,4-tetrahydro-2,8-dimethylpyrido[4,3-b]indol-5-yl)-1-(3-methylpiperidin-1-yl)ethanone] |  | 3% | 39% |  |  |  | 14%
15 | Cc1ccc(CCn2c3c(c4cc(Cl)ccc42)CN(c2cccc(C(F)(F)F)c2)CC3)cn1 [Compound 403, 8-Chloro-5-[2-(6-methyl-pyridin-3-yl)-ethyl]-2-(3-trifluoromethyl-phenyl)-2,3,4,5-tetrahydro-1H-pyrido[4,3-b]indole] |  | 30% | 35% |  |  |  | 10%
16 | CN1CCN(CCn2c3c(c4cc(Cl)ccc42)CN(C)CC3)CC1 [Compound 417, 8-chloro-2,3,4,5-tetrahydro-2-methyl-5-(2-(4-methylpiperazin-1-yl)ethyl)-1H-pyrido[4,3-b]indole] |  | 28% | 29% |  |  |  | 19%
17 | CN1CCc2c(c3cc(Cl)ccc3n2CCc2cncnc2)C1 [Compound 424, 8-Chloro-2-methyl-5-(2-pyrimidin-5-yl-ethyl)-2,3,4,5-tetrahydro-1H-pyrido[4,3-b]indole] |  | 28% | 76% |  |  |  | 19%
18 | Cc1ccc2c(c1)c1c(n2CCc2cncc(C(F)(F)F)c2)CCN(C)C1 [Compound 425, 5-(2-(5-(trifluoromethyl)pyridin-3-yl)ethyl)-2,3,4,5-tetrahydro-2,8-dimethyl-1H-pyrido[4,3-b]indole] |  | 49% | 72% |  |  |  | 85%
19 | CN1CCc2c(c3cc(Cl)ccc3n2CCc2cncc(C(F)(F)F)c2)C1 [Compound 426, 8-chloro-5-(2-(5-(trifluoromethyl)pyridin-3-yl)ethyl)-2,3,4,5-tetrahydro-2-methyl-1H-pyrido[4,3-b]indole] |  | 42% | 80% |  |  |  | 66%
20 | Cc1cncc(CCn2c3c(c4cc(C)ccc42)CN(C)CC3)c1 [Compound 429, 2,3,4,5-tetrahydro-2,8-dimethyl-5-(2-(5-methylpyridin-3-yl)ethyl)-1H-pyrido[4,3-b]indole] |  | 67% | 84% |  |  |  | 68%
21 | Cc1ccc2c(c1)c1c(n2CC(=O)N2CCN(C)CC2)CCN(C)C1 [Compound 459, 2-(1,2,3,4-tetrahydro-2,8-dimethylpyrido[4,3-b]indol-5-yl)-1-(4-methylpiperazin-1-yl)ethanone] |  | −9% | 3% |  |  |  | -4%
